System: 874868-142-R-J2-PDC complex spheroids, growth % test/control
Assay: Anticancer human tumor 874868-142-R-J2-PDC patient-derived head and neck squamous carcinoma cell line growth inhibition [CLK]
Conditions: for IC50: curve of first compound; for viability, T/C: stronger effect = lower value
How it was run: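 Multi-cell-type spheroids combined patient-derived tumor cells with HUVEC endothelial cells and human mesenchymal stem cells. Paired agents were dosed in half-log steps down from about clinical Cmax, or from 10 microM where Cmax was unknown.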

[1] = second compound 0.0316 µM, first compound 0.0316 µM
[2] = second compound 0.0316 µM, first compound 0.1 µM
[3] = second compound 0.0316 µM, first compound 0.316 µM
[4] = second compound 0.0316 µM, first compound 1 µM
[5] = second compound 0.0316 µM, first compound 3.16 µM
[6] = second compound 0.0316 µM, first compound 10 µM
[7] = second compound 0.1 µM, first compound 0.0316 µM
[8] = second compound 0.1 µM, first compound 0.1 µM
[9] = second compound 0.1 µM, first compound 0.316 µM
[10] = second compound 0.1 µM, first compound 1 µM
[11] = second compound 0.1 µM, first compound 3.16 µM
[12] = second compound 0.1 µM, first compound 10 µM
[13] = second compound 0.316 µM, first compound 0.0316 µM
[14] = second compound 0.316 µM, first compound 0.1 µM
[15] = second compound 0.316 µM, first compound 0.316 µM
[16] = second compound 0.316 µM, first compound 1 µM
[17] = second compound 0.316 µM, first compound 3.16 µM
[18] = second compound 0.316 µM, first compound 10 µM
[19] = second compound 1 µM, first compound 0.0316 µM
[20] = second compound 1 µM, first compound 0.1 µM
[21] = second compound 1 µM, first compound 0.316 µM
[22] = second compound 1 µM, first compound 1 µM
[23] = second compound 1 µM, first compound 3.16 µM
[24] = second compound 1 µM, first compound 10 µM
[25] = second compound 3.16 µM, first compound 0.0316 µM
[26] = second compound 3.16 µM, first compound 0.1 µM
[27] = second compound 3.16 µM, first compound 0.316 µM
[28] = second compound 3.16 µM, first compound 1 µM
[29] = second compound 3.16 µM, first compound 3.16 µM
[30] = second compound 3.16 µM, first compound 10 µM
[31] = second compound 10 µM, first compound 0.0316 µM
[32] = second compound 10 µM, first compound 0.1 µM
[33] = second compound 10 µM, first compound 0.316 µM
[34] = second compound 10 µM, first compound 1 µM
[35] = second compound 10 µM, first compound 3.16 µM
[36] = second compound 10 µM, first compound 10 µM
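Note: spheroids exposed to the compounds for 7 days.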
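Throughout, for viability, T/C: 100% = DMSO vehicle control viability.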

COc1ccc([C@@H](O)c2cc(-c3ncnc4cc(N5CCOCC5)ccc34)c(F)cc2Cl)nn1 + CN1CCN(c2cc(C(=O)Nc3cc4cc(-c5cnn(C)c5)ccc4cn3)ccn2)CC1
IC50 (second compound 0.0316 µM): 1.99 µM
IC50 (second compound 0.1 µM): 0.899 µM
IC50 (second compound 0.316 µM): < 0.0316 µM
IC50 (second compound 1 µM): < 0.0316 µM
IC50 (second compound 3.16 µM): < 0.0316 µM
IC50 (second compound 10 µM): < 0.0316 µM
viability, T/C [1]: 83.6%
viability, T/C [2]: 77.9%
viability, T/C [3]: 74.9%
viability, T/C [4]: 70.4%
viability, T/C [5]: 36.1%
viability, T/C [6]: 32.6%
viability, T/C [7]: 71%
viability, T/C [8]: 62.7%
viability, T/C [9]: 64.5%
viability, T/C [10]: 48.8%
viability, T/C [11]: 30.9%
viability, T/C [12]: 30.3%
viability, T/C [13]: 17.3%
viability, T/C [14]: 12.2%
viability, T/C [15]: 13.4%
viability, T/C [16]: 9.3%
viability, T/C [17]: 14.9%
viability, T/C [18]: 13.4%
viability, T/C [19]: 0.18%
viability, T/C [20]: 0.23%
viability, T/C [21]: 2.66%
viability, T/C [22]: 0.22%
viability, T/C [23]: 0.24%
viability, T/C [24]: 0.33%
viability, T/C [25]: 0.22%
viability, T/C [26]: 0.16%
viability, T/C [27]: 3.99%
viability, T/C [28]: 0.25%
viability, T/C [29]: 0.23%
viability, T/C [30]: 0.35%
viability, T/C [31]: 0.06%
viability, T/C [32]: 0.15%
viability, T/C [33]: 2.92%
viability, T/C [34]: 0.15%
viability, T/C [35]: 0.22%
viability, T/C [36]: 3.6%

C=CC(=O)N1CCN(c2nc(=O)n(-c3c(C)ccnc3C(C)C)c3nc(-c4c(O)cccc4F)c(F)cc23)C(C)C1 (stereo not drawn) + CNC(=O)c1ccc(Nc2nc(OC3CCCC3)c3c(-c4ccc5nc(C)oc5c4)c[nH]c3n2)c(OC)c1
IC50 (second compound 0.0316 µM): > 10 µM
IC50 (second compound 0.1 µM): > 10 µM
IC50 (second compound 0.316 µM): > 10 µM
IC50 (second compound 1 µM): < 0.0316 µM
IC50 (second compound 3.16 µM): < 0.0316 µM
IC50 (second compound 10 µM): < 0.0316 µM
viability, T/C [1]: 99.7%
viability, T/C [2]: 82.6%
viability, T/C [3]: 96.6%
viability, T/C [4]: 108%
viability, T/C [5]: 124%
viability, T/C [6]: 103%
viability, T/C [7]: 82.7%
viability, T/C [8]: 91.5%
viability, T/C [9]: 90.3%
viability, T/C [10]: 92.1%
viability, T/C [11]: 101%
viability, T/C [12]: 88%
viability, T/C [13]: 50.4%
viability, T/C [14]: 59.7%
viability, T/C [15]: 56.9%
viability, T/C [16]: 53.4%
viability, T/C [17]: 59%
viability, T/C [18]: 58.3%
viability, T/C [19]: 40.6%
viability, T/C [20]: 47.7%
viability, T/C [21]: 36.3%
viability, T/C [22]: 46.1%
viability, T/C [23]: 41.2%
viability, T/C [24]: 40.6%
viability, T/C [25]: 42.8%
viability, T/C [26]: 39.2%
viability, T/C [27]: 41.1%
viability, T/C [28]: 45.2%
viability, T/C [29]: 53%
viability, T/C [30]: 36.4%
viability, T/C [31]: 31.3%
viability, T/C [32]: 33.5%
viability, T/C [33]: 35.4%
viability, T/C [34]: 41%
viability, T/C [35]: 40%
viability, T/C [36]: 28.3%

CCCS(=O)(=O)Nc1ccc(F)c(C(=O)c2c[nH]c3ncc(-c4ccc(Cl)cc4)cc23)c1F + CNC(=O)c1ccc(Nc2nc(OC3CCCC3)c3c(-c4ccc5nc(C)oc5c4)c[nH]c3n2)c(OC)c1
IC50 (second compound 0.0316 µM): > 10 µM
IC50 (second compound 0.1 µM): > 10 µM
IC50 (second compound 0.316 µM): > 10 µM
IC50 (second compound 1 µM): < 0.0316 µM
IC50 (second compound 3.16 µM): < 0.0316 µM
IC50 (second compound 10 µM): < 0.0316 µM
viability, T/C [1]: 119%
viability, T/C [2]: 122%
viability, T/C [3]: 133%
viability, T/C [4]: 143%
viability, T/C [5]: 139%
viability, T/C [6]: 87.8%
viability, T/C [7]: 101%
viability, T/C [8]: 104%
viability, T/C [9]: 110%
viability, T/C [10]: 144%
viability, T/C [11]: 140%
viability, T/C [12]: 84.6%
viability, T/C [13]: 62.2%
viability, T/C [14]: 59.6%
viability, T/C [15]: 59.6%
viability, T/C [16]: 61.8%
viability, T/C [17]: 67.9%
viability, T/C [18]: 53.2%
viability, T/C [19]: 40.9%
viability, T/C [20]: 38.2%
viability, T/C [21]: 46.8%
viability, T/C [22]: 54.9%
viability, T/C [23]: 49.3%
viability, T/C [24]: 45.3%
viability, T/C [25]: 41.2%
viability, T/C [26]: 38%
viability, T/C [27]: 41.8%
viability, T/C [28]: 38.8%
viability, T/C [29]: 53.8%
viability, T/C [30]: 32%
viability, T/C [31]: 38.8%
viability, T/C [32]: 44.1%
viability, T/C [33]: 50.2%
viability, T/C [34]: 37.6%
viability, T/C [35]: 52.4%
viability, T/C [36]: 45.2%

COC1C=CCC(C)C(C)S(=O)(=O)NC(=O)c2ccc3c(c2)N(CC2CCC21)CC1(CCCc2cc(Cl)ccc21)CO3 (stereo not drawn) + CNC(=O)c1ccc(Nc2nc(OC3CCCC3)c3c(-c4ccc5nc(C)oc5c4)c[nH]c3n2)c(OC)c1
IC50 (second compound 0.0316 µM): 0.706 µM
IC50 (second compound 0.1 µM): 0.751 µM
IC50 (second compound 0.316 µM): 0.0796 µM
IC50 (second compound 1 µM): < 0.0316 µM
IC50 (second compound 3.16 µM): < 0.0316 µM
IC50 (second compound 10 µM): < 0.0316 µM
viability, T/C [1]: 92.5%
viability, T/C [2]: 87.4%
viability, T/C [3]: 64.6%
viability, T/C [4]: 42.1%
viability, T/C [5]: 28.4%
viability, T/C [6]: 15.8%
viability, T/C [7]: 92.2%
viability, T/C [8]: 68%
viability, T/C [9]: 57.1%
viability, T/C [10]: 56.6%
viability, T/C [11]: 28%
viability, T/C [12]: 13.2%
viability, T/C [13]: 58.7%
viability, T/C [14]: 49.1%
viability, T/C [15]: 35.6%
viability, T/C [16]: 29.1%
viability, T/C [17]: 25%
viability, T/C [18]: 14.3%
viability, T/C [19]: 44.4%
viability, T/C [20]: 34.8%
viability, T/C [21]: 24.9%
viability, T/C [22]: 18.6%
viability, T/C [23]: 14.8%
viability, T/C [24]: 16.8%
viability, T/C [25]: 36.9%
viability, T/C [26]: 28.7%
viability, T/C [27]: 25.7%
viability, T/C [28]: 19.7%
viability, T/C [29]: 18.5%
viability, T/C [30]: 16.9%
viability, T/C [31]: 40.1%
viability, T/C [32]: 30.4%
viability, T/C [33]: 32.8%
viability, T/C [34]: 17.4%
viability, T/C [35]: 20.6%
viability, T/C [36]: 14.9%
